Test [1] concerns the target T1, Prothrombin (Homo sapiens, UniProt P00734). Put plainly: Inhibition of human thrombin.
A further test deals with T2, Serine protease 1 (Bos taurus, UniProt P00760).
T2 sequence (P00760 whole entry): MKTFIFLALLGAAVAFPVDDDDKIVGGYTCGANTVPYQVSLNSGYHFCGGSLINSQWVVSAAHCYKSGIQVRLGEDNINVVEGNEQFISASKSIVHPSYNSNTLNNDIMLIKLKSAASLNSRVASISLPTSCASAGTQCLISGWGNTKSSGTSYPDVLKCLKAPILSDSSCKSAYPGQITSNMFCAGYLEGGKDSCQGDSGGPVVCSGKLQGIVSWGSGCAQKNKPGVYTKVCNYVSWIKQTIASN
Put plainly: Inhibition of bovine trypsin.

For test [2], the target named is T1, Prothrombin. Nature of the test: Compound was evaluated for inhibition of human thrombin at a concentration of 50 uM; Not active.

These results are taken from ChEMBL document CHEMBL1128948, “Novel thrombin inhibitors that are based on a macrocyclic tripeptide motif” (Bioorg Med Chem Lett, 1996).

Broadly, the Ki is a dissociation constant, usually derived from enzyme kinetics or from competition with a known ligand.

The molecule `N=C(N)NCCC[C@H]1NC(=O)[C@H]2CCCN2C(=O)[C@H](Cc2ccccc2)NC(=O)CCCCCNC(=O)[C@H](CC(c2ccccc2)c2ccccc2)NC(=O)C1=O` (single isomer, unassigned) gave a Ki at Prothrombin [1] of 5.3 nM.

On Prothrombin [1], `N=C(N)NCCC[C@H]1NC(=O)[C@H]2CCCN2C(=O)[C@H](Cc2ccccc2)NC(=O)CCCCCNC(=O)C1=O` (single isomer, unassigned) yielded a Ki of 473 nM. Consider `N=C(N)NCCC[C@H]1NC(=O)[C@H]2CCCN2C(=O)[C@H](Cc2ccccc2)NC(=O)CCCCCCCNC(=O)C1=O` (single isomer, unassigned), for which the Ki at Prothrombin [1] amounted to 24 nM. Consider `COC1C[C@@H]2C(=O)N[C@H](CCCN=C(N)N)C(=O)C(=O)NCCCCCCCC(=O)N[C@@H](Cc3ccccc3)C(=O)N2C1` (stereo not given in full), for which the Ki came to 159 nM at Prothrombin [1] and 13 nM at Serine protease 1. Molecule `N=C(N)NCCC[C@H]1NC(=O)[C@H]2CCCN2C(=O)[C@H](Cc2ccccc2)NC(=O)CCCCCNC(=O)[C@H](CCc2ccccc2)NC(=O)C1=O` (single isomer, unassigned) yielded a Ki at Prothrombin [1] of 3.1 nM. As for `N=C(N)NCCC[C@H]1NC(=O)[C@H]2CCCN2C(=O)[C@H](NC=O)CNC(=O)/C=C\[C@@H](Cc2ccc(O)cc2)NC(=O)[C@H](Cc2ccccc2)NC(=O)C1=O` [MACROCYCLIC TRIPEPTIDE MOTIF], the affinity at Prothrombin [1] corresponds to a Ki of 4.1 nM. On to `N=C(N)NCCC[C@@H]1NC(=O)[C@@H]2CCCN2C(=O)[C@@H](c2ccccc2)NC(=O)CCCCCCCNC(=O)C1=O` (single isomer, unassigned), for which the Ki at Serine protease 1 came to 11 nM. At Prothrombin [1], `N=C(N)NCCC[C@H]1NC(=O)[C@H]2CCCN2C(=O)[C@H](CCc2ccccc2)NC(=O)CCCCCCCNC(=O)C1=O` (single isomer, unassigned) had a Ki of 20 nM.

Regarding `N=C(N)NCCC[C@@H]1NC(=O)[C@@H]2CCCN2C(=O)[C@@H](Cc2ccccc2)NC(=O)CCCCCNC(=O)[C@@H](CCc2ccccc2)NC(=O)C1=O` (single isomer, unassigned), affinity on Serine protease 1 was put at a Ki of 5.2 nM. Still for that read-out and setting: as for `N=C(N)NCCC[C@@H]1NC(=O)[C@@H]2CCCN2C(=O)[C@@H](NC=O)CNC(=O)/C=C\[C@@H](Cc2ccc(O)cc2)NC(=O)[C@@H](Cc2ccccc2)NC(=O)C1=O` [MACROCYCLIC TRIPEPTIDE MOTIF], the figure is 1 nM. `N=C(N)NCCC[C@H]1NC(=O)[C@H]2CCCN2C(=O)[C@H](Cc2ccccc2)NC(=O)CCCCCCNC(=O)C1=O` (single isomer, unassigned) had a Ki at Prothrombin [1] of 1800 nM. `N=C(N)NCCC[C@@H]1NC(=O)[C@@H]2CCCN2C(=O)[C@@H](Cc2ccccc2)NC(=O)CCCCCCCNC(=O)C1=O` (single isomer, unassigned) yielded a Ki on Serine protease 1 of 10 nM. Turning to `N=C(N)NCCC[C@H]1NC(=O)[C@H]2CCCCN2C(=O)[C@H](Cc2ccccc2)NC(=O)CCCCCCCNC(=O)C1=O` (single isomer, unassigned), the Ki at Prothrombin [1] came to 86 nM.

`N=C(N)NCCC[C@@H]1NC(=O)[C@@H]2CCCN2C(=O)[C@@H](Cc2ccccc2)NC(=O)CCCCCNC(=O)C1=O` (single isomer, unassigned) showed a Ki at Serine protease 1 of 710 nM. Same read-out and setting: as for `N=C(N)NCCC[C@@H]1NC(=O)[C@@H]2CCCN2C(=O)[C@@H](Cc2ccccc2)NC(=O)CCCCCCNC(=O)C1=O` (single isomer, unassigned), the figure is 280 nM. Turning to `N=C(N)NCCC[C@H]1NC(=O)[C@H]2CCCN2C(=O)[C@H](CCc2ccccc2)NC(=O)CCCCCCCNC(=O)C1O` (stereo not given in full), the Ki entry on Prothrombin [2] is on record as “Not Active”. Take `N=C(N)NCCC[C@H]1NC(=O)[C@H]2CCCN2C(=O)[C@H](Cc2ccccc2)NC(=O)CCCCCCCCCNC(=O)C1=O` (single isomer, unassigned): the affinity on Prothrombin [1] corresponds to a Ki of 9.9 nM. The molecule `N=C(N)NCCC[C@H]1NC(=O)[C@H]2CCCN2C(=O)[C@H](Cc2ccccc2)NC(=O)CCCCCCCCCCNC(=O)C1=O` (single isomer, unassigned) registered a Ki at Prothrombin [1] of 15 nM. Turning to `N=C(N)NCCC[C@@H]1NC(=O)[C@@H]2CCCN2C(=O)[C@@H](CCc2ccccc2)NC(=O)CCCCCCCNC(=O)C1=O` (single isomer, unassigned), the Ki on Serine protease 1 was 14 nM.

The molecule `N=C(N)NCCC[C@@H]1NC(=O)[C@@H]2CCCN2C(=O)[C@@H](Cc2ccccc2)NC(=O)CCCCCCCCCNC(=O)C1=O` (single isomer, unassigned) yielded a Ki on Serine protease 1 of 2.1 nM. Turning to `N=C(N)NCCC[C@@H]1NC(=O)[C@@H]2CCCN2C(=O)[C@@H](Cc2ccccc2)NC(=O)CCCCCNC(=O)[C@@H](CC(c2ccccc2)c2ccccc2)NC(=O)C1=O` (single isomer, unassigned), at Serine protease 1, the inhibition constant (Ki) worked out at 2.5 nM.

Molecule `N=C(N)NCCC[C@@H]1NC(=O)[C@@H]2CCCN2C(=O)[C@@H](Cc2ccccc2)NC(=O)CCCCCCCCCCNC(=O)C1=O` (single isomer, unassigned) came in with a Ki at Serine protease 1 of 25 nM. `N=C(N)NCCC[C@H]1NC(=O)[C@H]2CCCN2C(=O)[C@H](c2ccccc2)NC(=O)CCCCCCCNC(=O)C1=O` (single isomer, unassigned) came in with a Ki on Prothrombin [1] of 163 nM. For the molecule `N=C(N)NCCC[C@@H]1NC(=O)[C@@H]2CCCCN2C(=O)[C@@H](Cc2ccccc2)NC(=O)CCCCCCCNC(=O)C1=O` (single isomer, unassigned), the Ki at Serine protease 1 was determined as 66 nM.
